Source: patent publication US10669272B2, “Substituted naphthyridinone compounds useful as T cell activators” (BRISTOL-MYERS SQUIBB COMPANY, priority 2018, dated 2020)
Where two headings read alike, the source gives them in different places.

What was measured:
human DGKζ = biological target: T1, human DGKζ (Homo sapiens, UniProt Q13574); assay: DGKζ LIPGLO assay (extruded liposome substrate), in vitro DGK inhibition; format: biochemical; settings: read-out: DGKz LIPGLO IC50
T1 construct: TVMV protease cleavage site (C); Hexa-His (C); made in house; host or cells: Sf9 insect cells (baculovirus, Bac-to-Bac)

[1] = tested on: OT-1 CD8+ T cells with SIINFEKL-loaded MC38 tumor cells; assay: Murine cytotoxic T lymphocyte assay (IFN-γ, OT-1 CTL with MC38 tumor cells); format: cell-based, mouse; settings: read-out: msCTL INFg IC50
Excerpt: 5. Murine Cytotoxic T Lymphocyte Assay
An antigen-specific cytolytic T-cell (CTL) assay was developed to evaluate functionally the ability of DGKα and DGKζ inhibitors to enhance effector T cell mediated tumor cell killing activity. CD8+ T-cells isolated from the OT-1 transgenic mouse recognize antigen presenting cells, MC38, that present the ovalbumin derived peptide […]. Recognition of the cognate antigen initiates the cytolytic activity of the OT-1 antigen-specific CD8+ T cells.
Functional CTL cells were generated as follows: OT-1 splenocytes from 8-12 week old mice were isolated and expanded in the presence of the […] peptide at 1 μg/mL and mIL2 at 10 U/mL. After three days, fresh media with […] was added. On day 5 of the expansion, the CD8+ T cells were isolated and ready for use. Activated CTL cells may be stored frozen for 6 months. Separately, one million MC38 tumor cells were pulsed with 1 μg/mL of […]-OVA peptide for 3 hours at 37° C. The cells were washed (3×) with fresh media to remove excess peptide. Finally, CTL cells that were pretreated with DGK inhibitors for 1 hour in a 96-well U bottom plate were combined with the antigen loaded MC38 tumor cells at a 1:10 ratio. The cells were then spun at 700 rpm for 5 min and placed in an incubator overnight at 37° C. After 24 hours, the supernatant was collected for analysis of IFN-γ cytokine levels by AlphaLisa purchased from Perkin Elmer.

human DGKα = biological target: T2, human DGKα (Homo sapiens, UniProt P23743); assay: DGKα LIPGLO assay (extruded liposome substrate), in vitro DGK inhibition; format: biochemical; settings: read-out: DGKa LIPGLO IC50
T2 construct: TVMV protease cleavage site (C); Hexa-His (C); made in house; host or cells: Sf9 insect cells (baculovirus, Bac-to-Bac)

Human venous whole blood = assay: Human whole blood IFN-γ assay; format: cell-based;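 further: blood from healthy donors exposed to compound for 1 h before stimulation with anti-CD3 and anti-CD28 at 1 µg/mL each, IFN-γ quantified in supernatant by AlphaLISA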
Protocol: Human Whole Blood IFN-γ Assay
Human venous whole blood (22.5 μL per well), obtained from healthy donors, was pre-treated with compounds for one hour at 37° C. in a humidified 95% air/5% CO2 incubator. The blood was stimulated with 2.5 μL anti-human CD3 and anti-CD28 mAb at a final concentration of 1 μg/mL each for 24 hours at 37° C. IFN-γ in the supernatants was measured using AlphLISA kit (Cat # AL217).

naïve human CD8 T cells = assay: Human CD8 T cells IFN-γ assay; format: cell-based; settings: read-out: HuCD8 INFG Normalized EC50;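 further: Naïve human CD8 T cells stimulated with plate-bound anti-CD3 and soluble anti-CD28, IFN-γ in supernatant quantified by AlphaLISA and converted to pg/mL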
[2] = Homo sapiens, 24 h, human whole blood, anti-CD3 plus anti-CD28, 24 hours, 3 μM reference compound = 100% activation, read-out: INFg Whole Blood Normalized Agonist EC50
[3] = Homo sapiens, 24 h, human whole blood, normalized to 3 μM reference compound with anti-CD3 plus anti-CD28 as 100% activation, read-out: INFg Whole Blood Normalized Agonist EC50
[4] = human whole blood, normalized to 3 μM reference compound with anti-CD3 plus anti-CD28 as 100% activation, read-out: INFg Whole Blood Normalized Agonist EC50
[5] = Homo sapiens, T-cell, 20 h, normalized to 3 μM reference compound with anti-CD3 plus anti-CD28 as 100% activation
[6] = normalized to 3 μM reference compound with anti-CD3 plus anti-CD28 as 100% activation

T2 sequence (P23743 with tags, fused parts or gaps): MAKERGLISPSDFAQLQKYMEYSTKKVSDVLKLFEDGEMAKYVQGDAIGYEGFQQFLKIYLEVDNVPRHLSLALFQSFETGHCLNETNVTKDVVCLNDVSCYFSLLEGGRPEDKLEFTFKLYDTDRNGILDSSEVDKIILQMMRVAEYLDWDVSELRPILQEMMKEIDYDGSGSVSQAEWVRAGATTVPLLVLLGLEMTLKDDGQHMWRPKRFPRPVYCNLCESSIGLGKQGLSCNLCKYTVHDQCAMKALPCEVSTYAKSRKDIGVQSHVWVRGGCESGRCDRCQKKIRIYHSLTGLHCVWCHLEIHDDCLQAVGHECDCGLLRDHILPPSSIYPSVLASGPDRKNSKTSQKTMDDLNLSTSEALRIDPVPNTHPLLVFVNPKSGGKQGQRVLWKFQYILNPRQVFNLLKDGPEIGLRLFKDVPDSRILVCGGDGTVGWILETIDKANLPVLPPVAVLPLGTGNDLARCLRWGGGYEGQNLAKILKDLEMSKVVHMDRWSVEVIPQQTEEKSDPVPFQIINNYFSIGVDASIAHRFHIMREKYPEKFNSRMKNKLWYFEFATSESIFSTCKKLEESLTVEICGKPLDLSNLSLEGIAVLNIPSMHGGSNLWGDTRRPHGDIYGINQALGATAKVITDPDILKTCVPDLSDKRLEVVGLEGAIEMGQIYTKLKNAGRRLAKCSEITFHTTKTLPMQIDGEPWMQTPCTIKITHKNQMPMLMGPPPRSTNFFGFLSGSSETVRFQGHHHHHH
T1 sequence (Q13574 with tags, fused parts or gaps isoform Q13574-4): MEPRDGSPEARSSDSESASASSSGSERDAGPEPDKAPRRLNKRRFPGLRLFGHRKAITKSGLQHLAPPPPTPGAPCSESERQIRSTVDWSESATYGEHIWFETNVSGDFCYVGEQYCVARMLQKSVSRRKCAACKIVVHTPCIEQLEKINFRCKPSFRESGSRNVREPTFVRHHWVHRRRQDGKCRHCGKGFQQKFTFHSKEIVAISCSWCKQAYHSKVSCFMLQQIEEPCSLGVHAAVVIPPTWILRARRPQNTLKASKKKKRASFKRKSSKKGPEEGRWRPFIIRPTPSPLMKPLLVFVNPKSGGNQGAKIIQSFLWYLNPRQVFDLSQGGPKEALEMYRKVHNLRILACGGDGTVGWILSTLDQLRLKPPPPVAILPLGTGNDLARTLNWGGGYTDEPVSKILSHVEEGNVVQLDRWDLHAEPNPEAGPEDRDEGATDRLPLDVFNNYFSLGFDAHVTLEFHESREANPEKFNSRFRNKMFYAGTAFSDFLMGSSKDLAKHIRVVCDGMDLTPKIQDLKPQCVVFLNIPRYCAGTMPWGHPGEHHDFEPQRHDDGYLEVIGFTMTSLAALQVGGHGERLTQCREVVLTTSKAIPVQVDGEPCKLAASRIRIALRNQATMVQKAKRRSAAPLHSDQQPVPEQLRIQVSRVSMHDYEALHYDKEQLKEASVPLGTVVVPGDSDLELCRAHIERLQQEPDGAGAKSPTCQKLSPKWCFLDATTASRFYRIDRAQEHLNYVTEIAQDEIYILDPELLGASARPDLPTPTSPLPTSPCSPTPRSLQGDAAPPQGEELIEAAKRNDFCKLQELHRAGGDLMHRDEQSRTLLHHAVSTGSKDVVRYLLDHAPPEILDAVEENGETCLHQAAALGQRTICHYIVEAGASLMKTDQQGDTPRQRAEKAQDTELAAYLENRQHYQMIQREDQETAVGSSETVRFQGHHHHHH

`C[C@@H]1CN(c2c(C#N)c(=O)n(C)c3ccc(C#N)nc23)CCN1Cc1ccc(F)cc1F` [Example 985] showed an IC50 (human DGKζ; DGKζ liposome (LIPGLO) assay) of 3000 nM, an IC50 ([1]; Mus musculus, MC-38, murine CTL, IFN-γ) of 4100 nM and an IC50 (human DGKα; DGKα liposome (LIPGLO) assay) of 2200 nM. For the same molecule, the EC50 (Human venous whole blood; [2]) was 9700 nM.
In the case of `COc1cc(F)ccc1C(c1ccc(F)cc1)N1CCN(c2cc(=O)n(C)c3ccc(C#N)nc23)[C@@H](C)C1` (single isomer, unassigned) [Example 129], the IC50 (human DGKζ; liposome (LIPGLO) assay) is reported as 820 nM, the IC50 ([1]; Mus musculus, MC-38) is reported as 710 nM and the IC50 (human DGKα; liposome (LIPGLO) assay) is reported as 12000 nM. The EC50 (Human venous whole blood; [3]) was 5400 nM.
`Cc1nnc(C2CN(c3cc(=O)n(C)c4ccc(C#N)nc34)CCN2C(c2ccc(F)cc2)c2ccc(F)cc2)o1` (centres unmarked) [Example 126, 8-(4-(bis(4-fluorophenyl)methyl)-3-(5-methyl-1,3,4-oxadiazol-2-yl)piperazin-1-yl)-5-methyl-6-oxo-5,6-dihydro-1,5-naphthyridine-2-carbonitrile] gave an IC50 (human DGKζ; liposome (LIPGLO) assay) of 31000 nM, an IC50 ([1]; Mus musculus, MC-38) of 10000 nM and an IC50 (human DGKα; liposome (LIPGLO) assay) of 230000 nM. It also gave an EC50 (Human venous whole blood; [3]) of 20000 nM.
`COc1cc(F)ccc1C(c1ccc(F)cc1)N1CCN(c2cc(=O)n(C)c3ccc(C#N)nc23)[C@@H](C)C1` (single isomer, unassigned) [Example 130] showed an IC50 (human DGKζ; liposome (LIPGLO) assay) of 960 nM, an IC50 [1] of 750 nM and an IC50 (human DGKα; liposome (LIPGLO) assay) of 18000 nM. The EC50 (Human venous whole blood; [4]) was 4000 nM.
`Cn1c(=O)cc(N2CCN(C(c3ccc(F)cc3)c3ccc(F)cc3)CC2c2ccccc2)c2nc(C#N)ccc21` (single isomer, unassigned) [Example 156, 8-(4-(bis(4-fluorophenyl)methyl)-2-phenylpiperazin-1-yl)-5-methyl-6-oxo-5,6-dihydro-1,5-naphthyridine-2-carbonitrile] was tested, and the IC50 (human DGKζ; liposome (LIPGLO) assay) was 9800 nM, the IC50 [1] was 400 nM and the IC50 (human DGKα; liposome (LIPGLO) assay) was 8500 nM. For the same molecule, the EC50 (Human venous whole blood; [4]) was 6900 nM.
With `Cn1c(=O)cc(N2CCN(C(c3ccc(F)cc3)c3ccc(F)cc3)C(C(C)(C)F)C2)c2nc(C#N)ccc21` (single isomer, unassigned) [Example 80, 8-(4-(bis(4-fluorophenyl)methyl)-3-(2-fluoropropan-2-yl)piperazin-1-yl)-5-methyl-6-oxo-5,6-dihydro-1,5-naphthyridine-2-carbonitrile] the IC50 (human DGKζ; liposome (LIPGLO) assay) was 240000 nM, the IC50 [1] was 3100 nM and the IC50 (human DGKα; liposome (LIPGLO) assay) was 670 nM. It also gave an EC50 (Human venous whole blood; [3]) of 10000 nM.
`C[C@H]1CN(c2c(Cl)c(=O)n(C)c3ccc(C#N)nc23)CCN1C(c1ccc(F)cc1)c1ccc(F)cc1` [Example 36, (S)-8-(4-(bis(4-fluorophenyl)methyl)-3-methylpiperazin-1-yl)-7-chloro-5-methyl-6-oxo-5,6-dihydro-1,5-naphthyridine-2-carbonitrile] was tested, and the IC50 ([1]; Mus musculus, MC-38) was 1200 nM.
Work on `COC(=O)C1CN(c2c(F)c(=O)n(C)c3ccc(C#N)nc23)CCN1C(c1ccc(F)cc1)c1ccc(F)cc1` (single isomer, unassigned) [Example 75, Methyl 1-(bis(4-fluorophenyl)methyl)-4-(6-cyano-3-fluoro-1-methyl-2-oxo-1,2-dihydro-1,5-naphthyridin-4-yl)piperazine-2-carboxylate] yielded an IC50 (human DGKζ; liposome (LIPGLO) assay) of 400 nM, an IC50 [1] of 23 nM and an IC50 (human DGKα; liposome (LIPGLO) assay) of 990 nM.
`Cc1ccc(C(C)N2CCN(c3c(C#N)c(=O)n(C)c4ccc(C#N)nc34)C[C@H]2C)cc1` (single isomer, unassigned) [Example 953] gave an IC50 (human DGKζ; DGKζ liposome (LIPGLO) assay) of 15000 nM, an IC50 ([1]; murine CTL, IFN-γ) of 1700 nM and an IC50 (human DGKα; DGKα liposome (LIPGLO) assay) of 1100 nM.
`CC[C@H]1CN(C(c2ccc(F)cc2)c2ccc(F)cc2)CCN1c1cc(=O)n(C)c2ccc(C#N)nc12` [Example 127, (S)-8-(4-(bis(4-fluorophenyl)methyl)-2-ethylpiperazin-1-yl)-5-methyl-6-oxo-5,6-dihydro-1,5-naphthyridine-2-carbonitrile] gave an IC50 ([1]; Mus musculus, MC-38) of 360 nM and an EC50 (Human venous whole blood; Homo sapiens, 24 h, read-out: INFg Whole Blood Normalized Agonist EC50, human whole blood, normalized to 3 μM reference compound with anti-CD3 plus anti-CD28 as 100% activation) of 4300 nM.
Work on `C[C@@H]1CN(c2c(C#N)c(=O)n(C)c3ccc(C#N)nc23)CCN1C(c1ccc(Cl)cc1)c1ccc(Cl)cc1` [Example 103, (R)-8-(4-(bis(4-chlorophenyl)methyl)-3-methylpiperazin-1-yl)-5-methyl-6-oxo-5,6-dihydro-1,5-naphthyridine-2,7-dicarbonitrile] yielded an IC50 ([1]; Mus musculus, MC-38) of 76 nM.
`C[C@@H]1CN(C(c2ccc(F)cc2)c2ccc(F)cc2)[C@H](C)CN1c1cc(=O)n(C)c2ccc(C#N)nc12` [Example 131, 8-((2R,5R)-4-(bis(4-fluorophenyl)methyl)-2,5-dimethylpiperazin-1-yl)-5-methyl-6-oxo-5,6-dihydro-1,5-naphthyridine-2-carbonitrile] gave an IC50 ([1]; Mus musculus, MC-38) of 5900 nM.
In the case of `CC[C@@H]1CN(C(c2ccc(F)cc2)c2ccc(F)cc2)CCN1c1cc(=O)n(C)c2ccc(C#N)nc12` [Example 170, (R)-8-(4-(bis(4-fluorophenyl)methyl)-2-ethylpiperazin-1-yl)-5-methyl-6-oxo-5,6-dihydro-1,5-naphthyridine-2-carbonitrile], the IC50 ([1]; Mus musculus, MC-38) is reported as 2600 nM.
`C[C@@H]1CN(c2cc(=O)n(C)c3ccc(C#N)nc23)[C@@H](C)CN1C(c1ccc(F)cc1)c1ccc(F)cc1` [Example 3, 8-((2S,5R)-4-(bis(4-fluorophenyl)methyl)-2,5-dimethylpiperazin-1-yl)-5-methyl-6-oxo-5,6-dihydro-1,5-naphthyridine-2-carbonitrile] gave an IC50 ([1]; Mus musculus, MC-38) of 70 nM.
Molecule `CC[C@@H]1CN(c2cc(=O)n(C)c3ccc(C#N)nc23)[C@@H](C)CN1C(c1ccc(F)cc1)c1ccc(Cl)cc1` (some centres unmarked) [Example 1100] has an IC50 (human DGKζ; liposome (LIPGLO) assay) of 370 nM, an IC50 (human DGKα; liposome (LIPGLO) assay) of 390 nM and an EC50 (Human venous whole blood; [3]) of 120 nM. It also gave an EC50 (naïve human CD8 T cells; [5]) of 4.6 nM.
`CCC(c1ccc(F)c(F)c1)N1C[C@H](C)N(c2cc(=O)n(C)c3ccc(C#N)nc23)C[C@H]1C` (single isomer, unassigned) [Example 344] gave an IC50 (human DGKζ; liposome (LIPGLO) assay) of 1000 nM, an IC50 (human DGKα; liposome (LIPGLO) assay) of 1000 nM and an EC50 (Human venous whole blood; [3]) of 460 nM. The EC50 (naïve human CD8 T cells; [5]) was 24 nM.
For `C[C@@H]1CN(c2cc(=O)n(C)c3ccc(C#N)nc23)[C@@H](C)CN1C(c1ccc(F)cc1)c1ccc(C(F)F)cc1` (single isomer, unassigned) [Example 667], the IC50 (human DGKζ; liposome (LIPGLO) assay) was 2700 nM, the IC50 (human DGKα; liposome (LIPGLO) assay) was 2800 nM and the EC50 (Human venous whole blood; [4]) was 850 nM. It also gave an EC50 (naïve human CD8 T cells; [6]) of 27 nM.
`CC[C@H]1CN(C(c2ccc(Cl)cc2)c2ccc(F)cn2)[C@H](CC)CN1c1cc(=O)n(C)c2ccc(C#N)nc12` (single isomer, unassigned) [Example 1033] showed an IC50 (human DGKζ; liposome (LIPGLO) assay) of 59 nM, an IC50 (human DGKα; liposome (LIPGLO) assay) of 98 nM and an EC50 (Human venous whole blood; [3]) of 120 nM. The EC50 (naïve human CD8 T cells; [6]) was 190 nM.
Molecule `C[C@@H]1CN(c2cc(=O)n(C)c3ccc(C#N)nc23)[C@@H](C)CN1C(c1ccc(Cl)cc1)c1ncccc1F` (single isomer, unassigned) [Example 190] has an IC50 (human DGKζ; liposome (LIPGLO) assay) of 1100 nM, an IC50 (human DGKα; liposome (LIPGLO) assay) of 220 nM and an EC50 (Human venous whole blood; [4]) of 700 nM. The EC50 (naïve human CD8 T cells; [6]) was 170 nM.
In the case of `CC(C)C(=O)C1CN(c2cc(=O)n(C)c3ccc(C#N)nc23)CCN1C(c1ccc(F)cc1)c1ccc(F)cc1` (single isomer, unassigned) [Example 87, 8-(4-(bis(4-fluorophenyl)methyl)-3-isobutyrylpiperazin-1-yl)-5-methyl-6-oxo-5,6-dihydro-1,5-naphthyridine-2-carbonitrile], the IC50 (human DGKζ; liposome (LIPGLO) assay) is reported as 6600 nM, the IC50 [1] is reported as 450 nM and the IC50 (human DGKα; liposome (LIPGLO) assay) is reported as 28000 nM.
Work on `C[C@@H]1CN(c2cc(=O)n(C)c3ccc(C#N)nc23)[C@@H](C)CN1C(c1ccc(F)cc1)c1nc(C2CC2)no1` (single isomer, unassigned) [Example 736] yielded an IC50 (human DGKζ; DGKζ liposome (LIPGLO) assay) of 480 nM, an IC50 (human DGKα; DGKα liposome (LIPGLO) assay) of 160 nM and an EC50 (Human venous whole blood; [2]) of 150 nM. It also gave an EC50 (naïve human CD8 T cells; Homo sapiens, T-cell, 20 h, naïve human CD8 T cells, anti-CD3 plus anti-CD28, 3 μM reference compound = 100% activation) of 25 nM.
`C[C@@H]1CN(c2cc(=O)n(C)c3ccc(C#N)nc23)[C@@H](C)CN1Cc1c(F)cc(F)cc1F` [Example 246, 8-[(2S,5R)-2,5-dimethyl-4-[(2,4,6-trifluorophenyl)methyl]piperazin-1-yl]-5-methyl-6-oxo-5,6-dihydro-1,5-naphthyridine-2-carbonitrile] showed an IC50 (human DGKζ; liposome (LIPGLO) assay) of 460 nM, an IC50 (human DGKα; liposome (LIPGLO) assay) of 120 nM and an EC50 (Human venous whole blood; [3]) of 550 nM. It also gave an EC50 (naïve human CD8 T cells; [5]) of 27 nM.
